Test systems include CCRF-CEM leukemia; HCC-2998 colon; HOP-62 NSCLC; MCF7 breast; MOLT-4 leukemia; OVCAR-3 ovarian; OVCAR-5 ovarian; RPMI-8226 leukemia; SF-295 CNS; SR leukemia.
Holding throughout (test): growth of human tumour cells (NCI), 48 h

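Each compound was tested at five concentrations against cells in 96-well plates for 48 hours. At the GI50, growth is halved. TGI: concentration producing complete growth inhibition.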

Take `COc1ccc(/C=C/C(=O)c2cc(OC)c(OC)c(OC)c2)cc1OCC(=O)Nc1nc2ccc(OC(F)(F)F)cc2s1`: the GI50 was 2500 nM in the assay on CCRF-CEM leukemia; 6.18 µM in the assay with HCC-2998 colon; 2120 nM in the assay with HOP-62 NSCLC; 1320 nM in the assay with MCF7 breast; 2890 nM in the assay on MOLT-4 leukemia; 1520 nM with OVCAR-3 ovarian. Moreover, the GI50 in the assay on OVCAR-5 ovarian was 4.76 µM; in the assay on RPMI-8226 leukemia it was 2020 nM; in the assay with SF-295 CNS, 2210 nM; with SR leukemia, 391 nM. Also, the TGI in the assay with CCRF-CEM leukemia is above 100 µM; with HCC-2998 colon it was 25.1 µM; in the assay on HOP-62 NSCLC, 4.33 µM; in the assay with MCF7 breast, 7.77 µM; with MOLT-4 leukemia, above 100 µM; in the assay on OVCAR-3 ovarian it was 3.14 µM. In addition, the TGI with OVCAR-5 ovarian was 31.2 µM; in the assay on RPMI-8226 leukemia, above 100 µM; in the assay on SF-295 CNS, 6.09 µM; in the assay with SR leukemia, 3.66 µM.

With `CCOC(=O)C1Cc2c(cc3c4c(cccc24)N(C(C)=O)C3)N(C)C1` (stereo not drawn), the TGI is above 100 µM in the assay on CCRF-CEM leukemia; above 100 µM with HCC-2998 colon; above 100 µM in the assay with HOP-62 NSCLC; above 100 µM in the assay on MCF7 breast; above 100 µM with MOLT-4 leukemia; 3.27 µM in the assay with OVCAR-3 ovarian. Moreover, the TGI in the assay with OVCAR-5 ovarian, with RPMI-8226 leukemia, in the assay on SF-295 CNS and with SR leukemia was above 100 µM each time.

Consider `O=Nc1ccc(O)c(=O)cc1`, for which the GI50 with CCRF-CEM leukemia was 264 nM; with HCC-2998 colon, 3.35 µM; in the assay on HOP-62 NSCLC, 7450 nM; in the assay on MCF7 breast it was 2730 nM; in the assay on MOLT-4 leukemia it was 821 nM; in the assay on OVCAR-3 ovarian, 1390 nM. The GI50 was 5.49 µM in the assay with OVCAR-5 ovarian, 1050 nM in the assay on RPMI-8226 leukemia, 26100 nM in the assay with SF-295 CNS and 954 nM in the assay on SR leukemia. Moreover, the TGI was 1.19 µM with CCRF-CEM leukemia; 13.5 µM with HCC-2998 colon; 23.2 µM in the assay with HOP-62 NSCLC; 14 µM in the assay with MCF7 breast; 20.8 µM in the assay with MOLT-4 leukemia; 5.07 µM with OVCAR-3 ovarian. Also, the TGI with OVCAR-5 ovarian came out at 17.8 µM; in the assay on RPMI-8226 leukemia it was 3.97 µM; in the assay with SF-295 CNS it was 79.2 µM; in the assay on SR leukemia, 9.19 µM.

As to `CC(=O)c1ccc2c(c1)c1cc(C(C)=O)ccc1n2CCNC(C)C`, the GI50 in the assay on CCRF-CEM leukemia is 455 nM; in the assay on HCC-2998 colon, 0.635 µM; in the assay on HOP-62 NSCLC it was 717 nM; in the assay on MCF7 breast, 294 nM; in the assay on MOLT-4 leukemia it was 337 nM; with OVCAR-3 ovarian, 506 nM. The GI50 in the assay on OVCAR-5 ovarian was 0.462 µM; in the assay with RPMI-8226 leukemia, 308 nM; with SF-295 CNS, 426 nM; in the assay on SR leukemia, 142 nM. In addition, the TGI in the assay with CCRF-CEM leukemia amounted to 2.65 µM; in the assay on HCC-2998 colon, 4.39 µM; in the assay with HOP-62 NSCLC it was 4.63 µM; in the assay with MCF7 breast, 1.11 µM; in the assay on MOLT-4 leukemia it was 1.79 µM; with OVCAR-3 ovarian it was 3.91 µM. For the same compound, the TGI with OVCAR-5 ovarian was determined as 5.56 µM; in the assay with RPMI-8226 leukemia it was 1.05 µM; in the assay on SF-295 CNS it was 2.62 µM; with SR leukemia, 11.4 µM.

Regarding `CCCCCCCCCCCCOC1C(CNC(=O)C2OC3OC(C)(C)OC3C2NC(=O)Nc2ccc(CC(=O)OC)cc2)OC2OC(C)(C)OC21` (stereo not drawn), the GI50 with CCRF-CEM leukemia is above 19600 nM; in the assay with HCC-2998 colon, above 100 µM; in the assay on HOP-62 NSCLC, above 50200 nM; with MCF7 breast it was above 100000 nM; in the assay on OVCAR-3 ovarian, above 100000 nM; in the assay on OVCAR-5 ovarian, above 100 µM. Further, the GI50 with RPMI-8226 leukemia is above 100000 nM; in the assay on SF-295 CNS, above 34800 nM; in the assay on SR leukemia, above 100000 nM. Also, the TGI in the assay on CCRF-CEM leukemia, in the assay with HCC-2998 colon, with HOP-62 NSCLC, in the assay with MCF7 breast, in the assay on MOLT-4 leukemia and in the assay with OVCAR-3 ovarian was above 100 µM throughout. For the same compound, the TGI was above 100 µM with OVCAR-5 ovarian, above 100 µM in the assay on RPMI-8226 leukemia, above 49.5 µM with SF-295 CNS and above 100 µM in the assay on SR leukemia.

On to `CCOC(=O)c1cc(C(=O)c2cc(OC)c(OC)c(OC)c2)n2ncccc12`, for which the GI50 in the assay on CCRF-CEM leukemia is 297 nM; in the assay with HCC-2998 colon, 2.1 µM; with HOP-62 NSCLC, 630 nM; in the assay with MCF7 breast it was 131 nM; in the assay with MOLT-4 leukemia it was 575 nM; in the assay on OVCAR-3 ovarian, 145 nM. Also, the GI50 was 2.72 µM in the assay on OVCAR-5 ovarian, 316 nM with RPMI-8226 leukemia, 219 nM in the assay on SF-295 CNS and 126 nM in the assay on SR leukemia. The TGI in the assay on CCRF-CEM leukemia is above 100 µM; in the assay on HCC-2998 colon, above 100 µM; in the assay with HOP-62 NSCLC, above 75.6 µM; in the assay with MCF7 breast it was above 100 µM; in the assay on MOLT-4 leukemia it was above 100 µM; with OVCAR-3 ovarian, 1.84 µM. Also, the TGI is above 100 µM with OVCAR-5 ovarian, 13.9 µM with SF-295 CNS and above 100 µM in the assay on SR leukemia.

Take `COc1ccc2c(c1)/C(=C\c1c(-c3cc(OC)ccc3OC)nc3sc(C)cn13)C(=O)N2C`: the GI50 is 12100 nM in the assay on CCRF-CEM leukemia; 59.7 µM in the assay with HCC-2998 colon; 26300 nM in the assay on HOP-62 NSCLC; 28300 nM in the assay with MCF7 breast; 14100 nM in the assay on MOLT-4 leukemia; 15600 nM with OVCAR-3 ovarian. The GI50 with OVCAR-5 ovarian is 55.7 µM; in the assay with RPMI-8226 leukemia, 9130 nM; in the assay with SF-295 CNS, 13100 nM; with SR leukemia it was 20800 nM. Moreover, the TGI was above 100 µM with CCRF-CEM leukemia; above 100 µM with HCC-2998 colon; above 100 µM in the assay with HOP-62 NSCLC; above 100 µM with MCF7 breast; 51.8 µM with MOLT-4 leukemia; 54.5 µM in the assay with OVCAR-3 ovarian. Moreover, the TGI with OVCAR-5 ovarian is above 100 µM; with RPMI-8226 leukemia it was 58.4 µM; in the assay on SF-295 CNS, 35.8 µM; with SR leukemia, 53 µM.

Regarding `NNC(=S)N/N=C(\C(=O)Nc1cccc(O)c1)C1C(=O)NC(=S)NC1=O`, the TGI in the assay on CCRF-CEM leukemia, in the assay with HCC-2998 colon, with HOP-62 NSCLC, in the assay on MCF7 breast, in the assay with MOLT-4 leukemia and in the assay on OVCAR-3 ovarian was above 100 µM throughout. In addition, the TGI in the assay on OVCAR-5 ovarian, in the assay with RPMI-8226 leukemia, in the assay with SF-295 CNS and with SR leukemia was above 100 µM in each case.

The values are drawn from PubChem BioAssay (NCI).
